Results reported in patent US20060280697A1, “Composition” (Conopco Inc, d/b/a UNILEVER, priority 2005, published 2006).
Entries after “also recorded” stand apart in the source; their conditions may differ.

assay: cooling sensation / cooling effect of synthesised compounds

Row | Structure (SMILES) | cooling effect
1 | COc1cccc(C2=CCN(c3ccccc3O)C(=O)N2)c1 [1-(2′-hydroxyphenyl)-4-(3″-methoxyphenyl)-1,2,3,6-tetrahydropyrimidine-2-one] | good cooling effects; also recorded: exhibit a cooling effect
2 | O=C1NC(c2cccc([N+](=O)[O-])c2)=CCN1c1ccccc1C(F)(F)F [1-(2′-trifluoromethylphenyl)-4-(3″-nitrophenyl)-1,2,3,6-tetrahydropyrimidine-2-one] | good cooling effects; also recorded: exhibit a cooling effect
3 | O=C1NC(c2ccccc2)=CCN1c1ccccc1O [1-(2′-hydroxyphenyl)-4-phenyl-1,2,3,6-tetrahydropyrimidine-2-one] | good cooling effects; also recorded: exhibit a cooling effect
4 | O=C1NC(c2cccc([N+](=O)[O-])c2)=CCN1c1ccccc1 [1-phenyl-4-(3″-nitrophenyl)-1,2,3,6-tetrahydropyrimidine-2-one] | good cooling effects; also recorded: exhibit a cooling effect
